Results from PMC7614683, “A small molecule PI3Kα activator for cardioprotection and neuroregeneration” (Nature, 2023).

Target: T1, PI3Kα N345K mutant (Homo sapiens, UniProt P42336, N345K)
T1 construct: Full-length human p110α was expressed either in a complex with full-length human p85α (for HTS, biochemistry and HDX-MS); 6xHis tag followed by TEV protease site (N); host or cells: Sf9, baculovirus
Assay: ADP-Glo catalytic activity, oncogenic mutant N345K
Format: biochemical
Procedure: Expression and purification of wild-type p110α (Cambridge MRC Laboratory for Molecular Biology (LMB-MRC) plasmid number OP831) in a complex with full-length p85α (LMB-MRC plasmid OP809) was performed as described. The oncogenic mutants G106V (LMB-MRC plasmid JB35), N345K (LMB-MRC plasmid OP661) and E545K (LMB-MRC plasmid OP663) were also purified using this protocol. Briefly, 10 litres of Spodoptera frugiperda (Sf9) cell culture at a density of 1.0 x 10^6 cells/ml were co-infected with a p85α-encoding virus [LMB-MRC plasmid OP809]. and a virus encoding p110α with an N-terminal 6xHis tag followed by a tobacco etch virus (TEV) protease site [LMB-MRC plasmid OP831]. After a 48 h infection at 27°C, cells were harvested and washed with PBS. […]
For characterisation of the effects of 1938 on in vitro PI3K enzymology, all reactions were performed at room temperature with 384 white-polystyrene plates (Corning #3574). […] Data was expressed as velocity (nmol of ADP generated/nmol of enzyme/sec). […] Luminescence was read using a PHERAstar® plate reader with software version 5.41, and analyses were performed using GraphPad Prism 8/9.

T1 sequence (P42336 whole entry N345K): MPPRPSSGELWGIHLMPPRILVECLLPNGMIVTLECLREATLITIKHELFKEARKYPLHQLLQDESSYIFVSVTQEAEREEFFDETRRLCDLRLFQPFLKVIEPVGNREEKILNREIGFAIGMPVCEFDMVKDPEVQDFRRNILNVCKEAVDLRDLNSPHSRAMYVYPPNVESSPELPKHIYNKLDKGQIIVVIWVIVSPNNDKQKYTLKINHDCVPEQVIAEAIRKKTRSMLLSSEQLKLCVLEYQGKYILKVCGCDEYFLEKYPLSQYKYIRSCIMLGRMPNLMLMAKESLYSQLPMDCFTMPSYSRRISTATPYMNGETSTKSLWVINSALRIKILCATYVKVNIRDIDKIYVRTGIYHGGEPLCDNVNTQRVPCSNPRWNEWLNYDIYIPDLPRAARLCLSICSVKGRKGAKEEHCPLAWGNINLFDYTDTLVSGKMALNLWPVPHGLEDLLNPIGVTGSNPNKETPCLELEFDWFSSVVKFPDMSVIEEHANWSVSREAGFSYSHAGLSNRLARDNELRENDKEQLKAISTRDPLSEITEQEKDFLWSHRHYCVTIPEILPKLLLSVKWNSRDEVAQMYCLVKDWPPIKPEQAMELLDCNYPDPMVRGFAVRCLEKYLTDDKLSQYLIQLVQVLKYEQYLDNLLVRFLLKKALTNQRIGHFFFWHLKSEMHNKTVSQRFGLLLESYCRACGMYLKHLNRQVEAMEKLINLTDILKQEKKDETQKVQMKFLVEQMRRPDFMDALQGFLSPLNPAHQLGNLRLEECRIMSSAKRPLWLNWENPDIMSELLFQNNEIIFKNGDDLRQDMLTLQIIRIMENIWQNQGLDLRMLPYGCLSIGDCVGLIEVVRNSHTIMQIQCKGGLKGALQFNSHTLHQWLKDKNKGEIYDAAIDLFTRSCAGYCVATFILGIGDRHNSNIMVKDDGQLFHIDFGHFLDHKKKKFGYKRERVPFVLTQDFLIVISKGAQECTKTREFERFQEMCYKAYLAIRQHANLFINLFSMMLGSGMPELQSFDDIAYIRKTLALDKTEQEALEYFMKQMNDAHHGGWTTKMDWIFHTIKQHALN
T1 sequence (P27986 whole entry partner): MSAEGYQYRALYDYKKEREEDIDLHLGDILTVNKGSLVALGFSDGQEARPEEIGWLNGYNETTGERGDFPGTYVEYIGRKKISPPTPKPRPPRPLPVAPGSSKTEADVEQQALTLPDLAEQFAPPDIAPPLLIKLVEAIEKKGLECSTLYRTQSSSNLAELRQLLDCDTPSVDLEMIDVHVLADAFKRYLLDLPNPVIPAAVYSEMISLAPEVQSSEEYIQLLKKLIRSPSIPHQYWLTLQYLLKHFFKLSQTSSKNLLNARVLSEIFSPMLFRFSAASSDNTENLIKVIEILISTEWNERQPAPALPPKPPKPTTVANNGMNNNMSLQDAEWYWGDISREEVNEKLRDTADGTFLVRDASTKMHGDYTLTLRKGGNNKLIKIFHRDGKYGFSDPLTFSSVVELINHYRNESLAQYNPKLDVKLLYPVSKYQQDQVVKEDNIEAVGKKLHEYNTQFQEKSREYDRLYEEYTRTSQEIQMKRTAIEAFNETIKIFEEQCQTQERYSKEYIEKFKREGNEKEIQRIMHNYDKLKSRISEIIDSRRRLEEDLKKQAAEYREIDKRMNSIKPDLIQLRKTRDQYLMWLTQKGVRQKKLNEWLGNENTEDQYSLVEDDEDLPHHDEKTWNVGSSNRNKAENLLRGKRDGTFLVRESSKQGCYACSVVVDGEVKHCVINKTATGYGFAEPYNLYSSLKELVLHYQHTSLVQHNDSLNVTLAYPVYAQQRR

CCN1CCN(c2ccc(Nc3cc(Nc4cccc5c4N(C(C)=O)CC5)ccn3)cc2)CC1 [Compound 1938]
activation of N345K mutant: levels comparable with stimulation with pY
